Reference: a melting point compilation (Tetko et al.; mined from patent text by program, amines drawn as free bases though some values may be those of a salt)

| melting point [°C] | SMILES |
| --- | --- |
| 151 to 152 | Cc1cccc(-c2ccc(C(=O)Nc3ccc4cc(CN5CCCC5)cnc4c3C)cc2)c1 |
| 156 to 158 | O=C(OC1COC(OC(=O)C2CCCCC2)CO1)C1CCCCC1 (stereo not drawn) |
| 115 to 118 | Cc1ccc(-c2ccccc2C(=O)Nc2ccc(C(=O)N(CCO)c3ccccc3C)cc2)cc1 |
| 65 to 67 | C#CCC(NC(=O)c1ccc(C)cc1)C(C)=O (stereo not drawn) |
| 174 | O=[N+]([O-])c1ccc(OCc2ccc(Cl)nc2)cc1F |
| 131 to 132 | CC(=O)Nc1nc(CCc2ccc(CN3CCC(NC(=O)OC(C)(C)C)C3)cc2)cs1 (stereo not drawn) |
| 240 to 243 | Cc1nc(NC(=O)n2ccnc2)sc1-c1ccnc(CC2CC2)n1 |
| 184 to 188 | CCn1cc(C(=O)O)c(=O)c2cc(F)c(N3CCC(NC(=O)OC(C)(C)C)C3)c(C)c21 (stereo not drawn) |
| 164 to 167 | COC(=O)CCc1ccc(Oc2ccc(-c3ccc(C#N)cc3)nn2)cc1 |
| 86 to 88 | c1ccc(CSc2nc(SCc3ccccc3)n(-c3ncccn3)n2)cc1 |
| 132 to 135 | O=[N+]([O-])C=C1NCCN1Cc1ccc(OCC(F)(F)F)nc1 |
| 73 to 75 | O=S(=O)(Cl)c1ccc(-c2ccc(C(F)(F)F)cc2)s1 |
| 144 | CCCc1c(OCCCCCOc2ccc(-c3cc4ccccc4c(=O)o3)cc2CCC(=O)OCC)ccc2c1OCCC2=O |
| 205 to 206 | CCOC(=O)c1cn2c3c(ccc(Cl)c3c1=O)OCC2C (stereo not drawn) |
| 236 to 238 | N#Cc1cccc(-c2c(C(N)=O)c3n(c2Cl)CCN(C(=O)NC2CCOCC2)C3)c1 |
| 99 to 101 | OCC1Cc2c(F)cccc2OC1CO (stereo not drawn) |
| 146 to 150 | Cc1ccc(Cn2nc(CCCc3ccc(OC(C)(C)C(=O)O)cc3)[nH]c2=O)cc1C |
| 131 to 132 | Cn1c(S(C)(=O)=O)nc2ccccc21 |
| 173 | NC(C=Cc1ccccc1[N+](=O)[O-])=NO |
| 183 to 184 | CCOC(=O)c1cc(O)n(-c2ccccc2)n1 |
| 113 | CCN1CCN(CCCN2CC[C@H](NC(=O)c3cc(Cl)c(N)cc3OC)[C@H](OC)C2)C1=O (relative stereo) |
| 199 | Cc1cc(-c2cc(C(F)(F)F)n3ncc(C(=O)Nc4cccc(S(=O)(=O)N5CCN(C)CC5)c4)c3n2)ccc1C(F)(F)F |
| 100 to 101 | Cc1cc(-c2ccccc2)c2ccccc2n1 |
| 195 | COc1ccc(OC)c2c1C(C)(C)CCC2(C)C |

| melting point [°C] | SMILES |
| --- | --- |
| 128 to 130 | Cc1ccc(N)c(C(=O)NCCC(C)n2ccnc2)c1 (stereo not drawn) |
| 230 to 231 | Cc1cc(C#N)cc(-c2ccc3c(c2)C(C)(C)OC(=S)N3)c1 |
| 84 to 86 | O=C(C(=O)c1ccc(F)cc1)c1ccncc1 |
| 260 | CCOC(=O)c1nccc2c(C)c3c(cc12)c1cc(O)ccc1n3CC |
| 64 | CCOC(C)C(=O)c1cc(C(C)(C)C)c(O)c(C(C)(C)C)c1 (stereo not drawn) |
| 47 to 49 | CC1(C)c2ccc(CCN3CCN(c4nsc5ccccc45)CC3)cc2C(C)(C)C1O (stereo not drawn) |
| 222 | OC(Cn1ccnc1)(c1ccc(-c2ccccc2)cc1)c1ccccc1Cl (stereo not drawn) |
| 125 to 127 | CCNC(C)CN1CCc2c(c(=O)oc3c(OC)c(OC)ccc23)C1 (stereo not drawn) |
| 238 to 240 | CCCCCCCCCCCCCCCC(=O)Nc1cc(C(=O)O)ccc1C |
| 154 | CCc1cccc(C)c1CNc1cc(C(=O)N(C)C)cc2c1nc(COC)n2C |
| 140 | CCCC(=O)C1=C(O)CC(c2c(C)c(C)c(C)c3c2OCC3)CC1=O (stereo not drawn) |
| 80 to 82 | O=C=Nc1ccc2c(c1)C(=O)OC2=O |
| 154 to 157 | NC(=O)CC[C@@H](CF)NC(=O)OCc1ccccc1 |
| 102 to 105 | CN(Cc1ccccc1)C(N)=NC#N |
| 110 to 112 | CCn1c(=O)oc(=O)c2ccccc21 |
| 88 to 89 | COC(=O)C1=Cc2cc(Br)ccc2N(C)CCC1 |
| 116 to 117 | CCCC1(CCC)c2ccccc2-c2ccc(O)cc21 |
| 243 to 246 | Cc1cnc2n1-c1cc(Cl)c(Cl)cc1N=C(c1ccc(-n3c(C)nc4cnccc43)cc1)C2 |
| 314 | C1=NNSc2ccccc21 |
| 142 to 145 | Cc1ccc(Oc2c(Cl)c(Oc3ccc(C)cc3)c(Oc3ccc(C)cc3)c(C#N)c2C#N)cc1 |
| 135 to 136 | CC1CN(c2ccc(Nc3cc(Br)cn(C)c3=O)nc2)C1 |
| 258 to 264 | Cc1c[nH]c(=O)nc1-n1cncn1 |
| 40 to 47 | COC(=O)c1ccc(CC(C)=O)cc1 |
| 172 to 173 | O=C1C(=O)N(C(c2ccccc2)c2ccccc2)c2c(Cl)cccc21 |

| melting point [°C] | SMILES |
| --- | --- |
| 129 to 130 | c1ccc(N2CCN(c3nn(-c4ccccc4)c4ccccc34)CC2)cc1 |
| 187 to 188 | Cc1ccc(-c2c(-c3ccc(S(N)(=O)=O)cc3)cnn(-c3ccc(F)cc3)c2=O)cc1F |
| 131 to 132 | C=C1C(=O)c2ccccc2OC1c1cccc([N+](=O)[O-])c1 (stereo not drawn) |
| 213 | CC(C)(C)OC(=O)[C@H]1C[C@H](S(=O)(=O)c2ccccc2)[C@@H](c2ccccc2)N1C(=O)CNC(=O)Nc1cccc(C(=O)O)c1 (racemic) |
| 190 to 191 | O=Cc1cc2cc(Cl)c(Cl)cc2nc1Cl |
| 318 | O=S(=O)(O)OC[C@H]1Cc2ccccc2CN1 |
| 111 to 113 | O=C(C1CC1)N1CCC2(CC1)Cc1ccccc1O2 |
| 126 to 128 | CCn1c(=O)ccc2cnc(Nc3ccccc3OC)nc21 |
| 168 to 171 | O=C(O)CCCCc1ccc2cncn2c1 |
| 191 to 193 | Fc1cc(F)c2c(c1)C(n1cc[nH]c1=S)CC2 (single isomer, unassigned; (+)) |
| 284 to 287 | Cn1cc(C2=C(c3cn(C)c4ccc(O)cc34)C(=O)NC2=O)c2ccccc21 |
| 117 to 118 | COc1ccc(-c2nc(CCl)nc3sc(C)c(C)c23)cc1OC |
| 154 to 155 | CN1CCCCC1Cn1nc(-c2c(-c3ccccc3)nn3ccccc23)ccc1=O (stereo not drawn) |
| 208 to 211 | CCOC(=O)c1cn(-c2ccc(F)cc2F)c2nc(N3CCNCC3)c(F)cc2c1=O |
| 162 | CC(=O)OC1CSC(Oc2cncc(-c3ccc(C)cc3Cl)c2)C(OC(C)=O)C1OC(C)=O (stereo not drawn) |
| 169 to 173 | CCOC(=O)C(C)C(NC(C)=O)C(C(C)=O)C(=O)Nc1ccc(Cl)cc1 (stereo not drawn) |
| 166 to 169 | COc1ccc(C(=O)Nc2ccc(F)c(F)c2)cc1Nc1cccc(C(F)(F)F)c1 |
| 212 to 213 | O=C1CCC(=O)N1CC(=O)N1c2ccccc2N(Cc2ccccc2)C(=O)[C@H]2CCC[C@H]21 (relative stereo) |
| 201 to 207 | Cn1nnnc1SCC1c2cc(O)c(O)cc2CCN1C(=O)OCC(Cl)(Cl)Cl (stereo not drawn) |
| 120 to 122 | CCOC(=O)c1cc(Cl)cnc1N |
| 190 to 192 | Cc1csc2nc(COc3ccccc3)cn12 |
| 95 | CP(=O)(O)CCC(=O)O |

| SMILES | melting point [°C] |
| --- | --- |
| COC(=O)c1cccc(CC(C)NCC(O)c2ccc(O)c(CO)c2)c1 (stereo not drawn) | 60 to 70 |
| CNC(=O)ON=C1SCC(=O)N1C(C)C | 94 to 96 |
| COc1ccc(CN2CCC(c3cn(Cc4ccc(Cl)s4)c4cc(F)ccc34)CC2)cc1C(=O)O | 232 to 236 |
